Source: PMC10926851 (Journal of medicinal chemistry, 2021)
“Also recorded” adds a separate entry of the source. Like-named read-outs stand apart in the source and are kept apart here. Each block holds one molecule with its values, some of them ahead of it.

Key:
[1] = target: HDAC4 (Homo sapiens, UniProt P56524); experiment: HDAC4 activity assay; format: biochemical; conditions: HDAC4 vs HDAC8
[2] = tested on: CCRF-CEM cells; experiment: Western blotting; format: cell-based, human; conditions: 10 μM, 5 h
[3] = tested on: CEM (T cell leukemia) xenografts; conditions: mouse, in vivo
[4] = tested on: Ramos (Burkitt's B-cell lymphoma); conditions: selective cytotoxicity index
[5] = tested on: CCRF-CEM (T-cell leukemia); conditions: for SCI (CC50 HS-27/CC50 cancer), CEM: selective cytotoxicity index; for cytotoxicity at 50 μM, CEM (printed in CC50 column): 72 h
[6] = tested on: HeLa (cervical adenocarcinoma); conditions: for SCI (CC50 HS-27/CC50 cancer), HeLa: selective cytotoxicity index
[7] = tested on: HS-27 (normal foreskin fibroblasts); experiment: DNS cytotoxicity assay, HS-27; format: cell-based, human; conditions: 72 h, noncancerous cells
[8] = target: T1, HDAC8 (Homo sapiens, UniProt Q9BY41); experiment: HDAC8 activity assay; format: biochemical; conditions: at tested concentrations
T1 sequence (Q9BY41 1-377): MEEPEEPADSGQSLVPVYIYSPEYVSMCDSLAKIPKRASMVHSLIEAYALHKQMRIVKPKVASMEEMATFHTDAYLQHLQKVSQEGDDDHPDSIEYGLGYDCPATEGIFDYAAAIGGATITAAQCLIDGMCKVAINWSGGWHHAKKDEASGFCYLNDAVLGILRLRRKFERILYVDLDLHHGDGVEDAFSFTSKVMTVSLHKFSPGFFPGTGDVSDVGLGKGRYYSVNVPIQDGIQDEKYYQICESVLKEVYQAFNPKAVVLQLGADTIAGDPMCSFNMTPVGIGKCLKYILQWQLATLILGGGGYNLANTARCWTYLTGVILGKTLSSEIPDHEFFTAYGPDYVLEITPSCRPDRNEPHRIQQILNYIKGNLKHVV

[9] = tested on: HeLa (cervical adenocarcinoma); experiment: cells; conditions: Homo sapiens, 72 h, read-out: % cell death at 10 μM, HeLa
[10] = target: T2, PPARγ (Homo sapiens, UniProt P37231); experiment: PPARγ-GAL4 transactivation assay on HepG2 cells; format: cell-based; conditions: HepG2, 25, 5 and 1 μM
T2 sequence (P37231 238-503 limits assumed): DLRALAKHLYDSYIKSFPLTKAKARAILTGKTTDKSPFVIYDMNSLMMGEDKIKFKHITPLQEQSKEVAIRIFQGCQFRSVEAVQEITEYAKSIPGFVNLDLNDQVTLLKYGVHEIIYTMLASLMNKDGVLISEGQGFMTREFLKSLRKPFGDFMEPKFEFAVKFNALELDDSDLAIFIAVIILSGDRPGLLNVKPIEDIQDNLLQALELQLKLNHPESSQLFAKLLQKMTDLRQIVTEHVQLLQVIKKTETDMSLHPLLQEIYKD

HDAC4, sequence (P56524 655-1084 limits assumed): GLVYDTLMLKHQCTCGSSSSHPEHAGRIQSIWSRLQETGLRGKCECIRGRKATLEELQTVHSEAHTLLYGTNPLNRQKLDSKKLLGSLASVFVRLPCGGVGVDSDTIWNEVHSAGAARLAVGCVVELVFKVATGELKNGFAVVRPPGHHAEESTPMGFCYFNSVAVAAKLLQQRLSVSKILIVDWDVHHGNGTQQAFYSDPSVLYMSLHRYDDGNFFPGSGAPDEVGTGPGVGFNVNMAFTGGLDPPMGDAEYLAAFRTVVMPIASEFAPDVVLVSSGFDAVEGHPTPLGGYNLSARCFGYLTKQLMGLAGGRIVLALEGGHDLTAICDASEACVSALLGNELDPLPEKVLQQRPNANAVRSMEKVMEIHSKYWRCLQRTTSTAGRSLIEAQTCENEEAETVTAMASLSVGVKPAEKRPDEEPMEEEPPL

- potency toward HDAC4 over HDAC8 (from IC50 values) [1]: at least 2 fold
Structure (SMILES): O=C(COc1ccc2cc(/C=C3/SC(=O)NC3=O)ccc2c1)Nc1ccccc1 [7a, 2-((6-((2,4-Dioxothiazolidin-5-ylidene)methyl)naphthalen-2-yl)-oxy)-N-phenylacetamide]

- potency toward HDAC4 over HDAC8 (from IC50 values) [1]: at least 2 fold
Structure (SMILES): O=C(COc1ccc2cc(/C=C3/SC(=O)NC3=O)ccc2c1)Nc1ccc(F)cc1 [7b, 2-((6-((2,4-Dioxothiazolidin-5-ylidene)methyl)naphthalen-2-yl)-oxy)-N-(4-fluorophenyl)acetamide]

Structure (SMILES): Cc1ccc(NC(=O)COc2ccc3cc(/C=C4/SC(=O)NC4=O)ccc3c2)cc1 [7c, 2-((6-((2,4-Dioxothiazolidin-5-ylidene)methyl)naphthalen-2-yl)-oxy)-N-(p-tolyl)acetamide]
- p53 expression [2]: no upregulated expression was observed
- c-Myc protein expression ([2]; vs pioglitazone 10 μM): downregulation of the c-Myc protein much greater than positive control pioglitazone
- cleaved caspase-3 expression ([2]; vs pioglitazone 10 μM): increased expression of cleaved caspase-3
- body weights of the mice [3]: not significantly affected
- SCI (CC50 HS-27/CC50 cancer), Ramos [4]: 5.8
- SCI (CC50 HS-27/CC50 cancer), CEM [5]: 14.4
- SCI (CC50 HS-27/CC50 cancer), HeLa [6]: 3.9

Structure (SMILES): O=C(COc1ccc2cc(/C=C3/SC(=O)NC3=O)ccc2c1)Nc1cccc(C(F)(F)F)c1 [7e, 2-((6-((2,4-Dioxothiazolidin-5-ylidene)methyl)naphthalen-2-yl)-oxy)-N-(3-(trifluoromethyl)phenyl) acetamide]
- % cell death at 10 μM, HS-27 [7]: >40%
- HDAC8 inhibition (in words) [8]: did not show HDAC8 inhibition

Structure (SMILES): O=C(COc1ccc2cc(/C=C3/SC(=O)NC3=O)ccc2c1)Nc1cccc(Cl)c1 [7f, N-(3-Chlorophenyl)-2-((6-((2,4-dioxothiazolidin-5-ylidene)-methyl)naphthalen-2-yl)oxy)acetamide]
- HDAC8 inhibition (in words) [8]: did not show HDAC8 inhibition
- SCI (CC50 HS-27/CC50 cancer), Ramos [4]: >10

Structure (SMILES): COc1cccc(NC(=O)COc2ccc3cc(/C=C4/SC(=O)NC4=O)ccc3c2)c1 [7g, 2-((6-((2,4-Dioxothiazolidin-5-ylidene)methyl)naphthalen-2-yl)-oxy)-N-(3-methoxyphenyl)acetamide]
- potency toward HDAC4 over HDAC8 (from IC50 values) [1]: at least 2 fold
- cytotoxicity at 10 µM [9]: > 40%
- SCI (CC50 HS-27/CC50 cancer), Ramos [4]: >10
- SCI (CC50 HS-27/CC50 cancer), HeLa [6]: >10

- HDAC8 inhibition (in words) [8]: inactive; also recorded: not active
Structure (SMILES): O=C(COc1ccc2cc(/C=C3/SC(=O)NC3=O)ccc2c1)Nc1ccc(Cl)c(Cl)c1 [7h, N-(3,4-Dichlorophenyl)-2-((6-((2,4-dioxothiazolidin-5-ylidene)-methyl)naphthalen-2-yl)oxy)acetamide]

Structure (SMILES): O=C(COc1ccc2cc(/C=C3/SC(=O)NC3=O)ccc2c1)Nc1c(F)cc(F)cc1Br [7i, N-(2-Bromo-4,6-difluorophenyl)-2-((6-((2,4-dioxothiazolidin-5-ylidene)methyl)naphthalen-2-yl)oxy)acetamide]
- HDAC8 inhibition (in words) [8]: inactive
- SCI (CC50 HS-27/CC50 cancer), Ramos [4]: 4.2
- SCI (CC50 HS-27/CC50 cancer), CEM [5]: 4.2
- SCI (CC50 HS-27/CC50 cancer), HeLa [6]: 3.8

Structure (SMILES): O=C(COc1ccc2cc(/C=C3/SC(=O)NC3=O)ccc2c1)Nc1ccccc1Oc1ccccc1 [7j, 2-((6-((2,4-Dioxothiazolidin-5-ylidene)methyl)naphthalen-2-yl)-oxy)-N-(2-phenoxyphenyl)acetamide]
- % cell death at 10 μM, HS-27 [7]: 0%
- cytotoxicity at 10 µM [9]: > 40%
- SCI (CC50 HS-27/CC50 cancer), Ramos [4]: >10
- SCI (CC50 HS-27/CC50 cancer), HeLa [6]: >10

- HDAC8 inhibition (in words) [8]: inactive
Structure (SMILES): O=C(COc1ccc2cc(/C=C3/SC(=O)NC3=O)ccc2c1)Nc1ccc(F)cc1F [7k, N-(2,4-Difluorophenyl)-2-((6-((2,4-dioxothiazolidin-5-ylidene)-methyl)naphthalen-2-yl)oxy)acetamide]

Structure (SMILES): Cc1cc(Br)ccc1NC(=O)COc1ccc2cc(/C=C3/SC(=O)NC3=O)ccc2c1 [7l, N-(4-Bromo-2-methylphenyl)-2-((6-((2,4-dioxothiazolidin-5-ylidene)methyl)naphthalen-2-yl)oxy)acetamide]
- SCI (CC50 HS-27/CC50 cancer), HeLa [6]: >10

- potency toward HDAC4 over HDAC8 (from IC50 values) [1]: at least 2 fold
Structure (SMILES): Cc1cccc(NC(=O)COc2ccc3cc(/C=C4/SC(=O)NC4=O)ccc3c2)n1 [7n, 2-((6-((2,4-Dioxothiazolidin-5-ylidene)methyl)naphthalen-2-yl)-oxy)-N-(6-methylpyridin-2-yl)acetamide]

Structure (SMILES): O=C(COc1ccc2cc(/C=C3/SC(=O)NC3=O)ccc2c1)Nc1ccc(Br)cc1 [7o, N-(4-Bromophenyl)-2-((6-((2,4-dioxothiazolidin-5-ylidene)-methyl)naphthalen-2-yl)oxy)acetamide]
- SCI (CC50 HS-27/CC50 cancer), HeLa [6]: >10

- HDAC8 inhibition (in words) [8]: did not show HDAC8 inhibition
Structure (SMILES): O=C(COc1ccc2cc(/C=C3/SC(=O)NC3=O)ccc2c1)Nc1cc(Cl)cc(C(F)(F)F)c1 [7p, N-(3-Chloro-5-(trifluoromethyl)phenyl)-2-((6-((2,4-dioxothiazoli-din-5-ylidene)methyl)naphthalen-2-yl)oxy)acetamide]

- HDAC8 inhibition (in words) [8]: inactive
Structure (SMILES): O=C(COc1ccc2cc(/C=C3/SC(=O)NC3=O)ccc2c1)Nc1ccc(Br)cc1F [7r, N-(4-Bromo-2-fluorophenyl)-2-((6-((2,4-dioxothiazolidin-5-ylidene)methyl)naphthalen-2-yl)oxy)acetamide]

- potency toward HDAC4 over HDAC8 (from IC50 values) [1]: at least 2 fold
Structure (SMILES): O=C(COc1ccc2cc(/C=C3/SC(=O)NC3=O)ccc2c1)Nc1cccc(F)n1 [7s, 2-((6-((2,4-Dioxothiazolidin-5-ylidene)methyl)naphthalen-2-yl)-oxy)-N-(6-fluoropyridin-2-yl)acetamide]

- HDAC8 inhibition (in words) [8]: not active
Structure (SMILES): Cc1ccc(NC(=O)COc2ccc3cc(/C=C4/SC(=O)NC4=O)ccc3c2)cc1Cl [7u, N-(3-Chloro-4-methylphenyl)-2-((6-((2,4-dioxothiazolidin-5-ylidene)methyl)naphthalen-2-yl)oxy)acetamide]

- HDAC8 inhibition (in words) [8]: not active
- PPARγ transactivation activity (in words) [10]: poor activity
Structure (SMILES): O=C(COc1ccc2cc(/C=C3/SC(=O)NC3=O)ccc2c1)Nc1ccc(Br)c(Br)c1 [7v, N-(3,4-Dibromophenyl)-2-((6-((2,4-dioxothiazolidin-5-ylidene)-methyl)naphthalen-2-yl)oxy)acetamide]

- potency toward HDAC4 over HDAC8 (from IC50 values) [1]: at least 2 fold
Structure (SMILES): O=C(COc1ccc2cc(/C=C3/SC(=O)NC3=O)ccc2c1)Nc1nc2ccccc2s1 [7w, N-(Benzo[d]thiazol-2-yl)-2-((6-((2,4-dioxothiazolidin-5-ylidene)-methyl)naphthalen-2-yl)oxy)acetamide]

- potency toward HDAC4 over HDAC8 (from IC50 values) [1]: at least 2 fold
Structure (SMILES): Cc1cccc2sc(NC(=O)COc3ccc4cc(/C=C5/SC(=O)NC5=O)ccc4c3)nc12 [7x, 2-((6-((2,4-Dioxothiazolidin-5-ylidene)methyl)naphthalen-2-yl)-oxy)-N-(4-methylbenzo[d]thiazol-2-yl)acetamide]

- potency toward HDAC4 over HDAC8 (from IC50 values) [1]: at least 2 fold
Structure (SMILES): CCOc1ccc2nc(NC(=O)COc3ccc4cc(/C=C5/SC(=O)NC5=O)ccc4c3)sc2c1 [7y, 2-((6-((2,4-Dioxothiazolidin-5-ylidene)methyl)naphthalen-2-yl)-oxy)-N-(6-ethoxybenzo[d]thiazol-2-yl)acetamide]

Structure (SMILES): CCc1ccc(CCOc2ccc(CC3SC(=O)NC3=O)cc2)nc1 (stereo not shown) [Pioglitazone, reference compound]
- cytotoxicity at 50 μM, CEM (printed in CC50 column) [5]: 0% @ 50 μM
- cytotoxicity at 50 μM, CEM (printed in CC50 column) ([5]; listed as pioglitazone): no cytotoxic effect
- cytotoxicity at 10 μM, HeLa (printed in CC50 column) ([6]; 10 μM, 72 h): 0% @ 10 μM

Structure (SMILES): COc1cccc2c1C(=O)c1c(O)c3c(c(O)c1C2=O)C[C@@](O)(C(=O)CO)C[C@@H]3O[C@H]1C[C@H](N)[C@H](O)[C@H](C)O1 [doxorubicin, reference compound]
- body weights of the mice [3]: not significantly affected
